Data taken from PubChem BioAssay (NCI).
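1) Cells in 96-well plates. 2) Compound, 48 h, 5 concentrations. 3) Linear interpolation between surrounding doses. 4) Unreached endpoint = highest concentration. Abbreviation: GI50, concentration required for 50% inhibition of growth. TGI: concentration producing complete growth inhibition.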

Legend:
Test in all cases: inhibition of tumour cell growth, NCI panel, 48 h
DMS 114 small cell lung = test system: DMS 114 small cell lung
RXF-631 renal = test system: RXF-631 renal
LXFL 529 NSCLC = test system: LXFL 529 NSCLC
SNB-78 CNS = test system: SNB-78 CNS
HOP-18 NSCLC = test system: HOP-18 NSCLC
T-47D breast = test system: T-47D breast
XF 498 CNS = test system: XF 498 CNS
M19-MEL melanoma = test system: M19-MEL melanoma
MDA-N = test system: MDA-N

## CCOC(=O)[C@@]12C(C)=CC(=O)O[C@]1(C)C1C(=O)NC(=O)C12 (stereo partly drawn)
DMS 114 small cell lung
  TGI: > 100 µM
RXF-631 renal
  TGI: > 100 µM
LXFL 529 NSCLC
  TGI: > 100 µM
SNB-78 CNS
  TGI: > 100 µM
HOP-18 NSCLC
  TGI: > 100 µM

## O=C(O)COc1ccc(OCC(=O)O)cc1
T-47D breast
  GI50: 0.449 µM
  TGI: 9.31 µM

## Cc1cc(Cl)cc2c1NC(=O)C2(O)CC(=O)c1ccc(Br)cc1 (stereo not drawn)
DMS 114 small cell lung
  TGI: > 100 µM
RXF-631 renal
  TGI: > 100 µM
XF 498 CNS
  TGI: 76.2 µM
LXFL 529 NSCLC
  TGI: > 100 µM
M19-MEL melanoma
  TGI: > 55 µM

## COc1ccc(Nc2ncnc3ccc(-c4cncc(NS(C)(=O)=O)c4)cc23)cc1Cl
T-47D breast
  GI50: 0.177 µM
  TGI: 1.61 µM

## COc1ccc(CSC2=C(C#N)C(=O)NC3(CCCCC3)S2)cc1
MDA-N
  TGI: 57.5 µM
T-47D breast
  TGI: 63.2 µM

## O=C(c1ccccc1)c1nnn(Cc2ccccc2Cn2nnc(C(=O)c3ccccc3)c2C(=O)c2ccccc2)c1C(=O)c1ccccc1
DMS 114 small cell lung
  TGI: > 100 µM
LXFL 529 NSCLC
  TGI: > 100 µM
SNB-78 CNS
  TGI: > 100 µM
M19-MEL melanoma
  TGI: > 100 µM
HOP-18 NSCLC
  TGI: > 100 µM

## Cc1ccc(N2C(=O)/C(=C/c3ccc(N(CCC#N)CCC#N)cc3)N=C2COc2ccc(Cl)cc2Cl)cc1
DMS 114 small cell lung
  TGI: > 100 µM
RXF-631 renal
  TGI: > 100 µM
XF 498 CNS
  TGI: > 100 µM
LXFL 529 NSCLC
  TGI: > 100 µM
SNB-78 CNS
  TGI: > 100 µM
HOP-18 NSCLC
  TGI: > 100 µM

## Brc1cc(C2OCCCO2)ccc1OCc1ccccc1
DMS 114 small cell lung
  TGI: > 100 µM
XF 498 CNS
  TGI: > 100 µM
LXFL 529 NSCLC
  TGI: > 100 µM
SNB-78 CNS
  TGI: > 100 µM
M19-MEL melanoma
  TGI: > 100 µM

## CC(C)C[C@H](NC(=O)Cn1cccc(CNC(=O)c2ccccc2)c1=O)B(O)O
T-47D breast
  GI50: 0.335 µM
  TGI: 2.82 µM

## CN1CCC(c2c(O)cc(O)c3c(=O)cc(-c4ccccc4Cl)oc23)C(O)C1 (stereo not drawn)
DMS 114 small cell lung
  TGI: 0.393 µM
XF 498 CNS
  TGI: 0.584 µM
HOP-18 NSCLC
  TGI: > 100 µM

## COc1c(OC)c(OC)c2c(=O)cc(-c3ccc(OC(C)C)cc3)oc2c1OC
MDA-N
  TGI: > 53.8 µM
T-47D breast
  TGI: 42.5 µM

## CC1=NN(c2ccccc2)C(=O)C12[C@H](c1ccccc1)C2(C#N)C#N (stereo partly drawn)
XF 498 CNS
  TGI: 7.22 µM
LXFL 529 NSCLC
  TGI: 3.89 µM
SNB-78 CNS
  TGI: 34 µM
M19-MEL melanoma
  TGI: 6.41 µM
HOP-18 NSCLC
  TGI: 20.3 µM

## O=C1CC(c2cccc(Cl)c2)Oc2ccccc21 (stereo not drawn)
T-47D breast
  TGI: 91.7 µM

## CCC1CCCCN1CC(C(C)=O)C(c1ccccc1)c1c(O)c2ccccc2oc1=O (stereo not drawn)
DMS 114 small cell lung
  TGI: > 100 µM
RXF-631 renal
  TGI: > 100 µM
XF 498 CNS
  TGI: > 100 µM
SNB-78 CNS
  TGI: > 100 µM
M19-MEL melanoma
  TGI: > 100 µM

## CCC[CH2][Sn]([CH2]CCC)([CH2]CCC)/[C](=C/[Si](C)(C)c1ccccc1)c1ccc2c(c1)OCO2
MDA-N
  GI50: 19.5 µM
  TGI: 40.3 µM
T-47D breast
  GI50: 24.6 µM
  TGI: 62 µM

## O=[N+]([O-])c1cc(/C=N\NS(=O)(=O)c2ccc(Cl)cc2)c(O)c([N+](=O)[O-])c1
DMS 114 small cell lung
  TGI: > 100 µM
RXF-631 renal
  TGI: > 100 µM
LXFL 529 NSCLC
  TGI: > 100 µM
SNB-78 CNS
  TGI: > 100 µM
M19-MEL melanoma
  TGI: > 100 µM
HOP-18 NSCLC
  TGI: > 100 µM

## COC(=O)/C(C#N)=C1\CCC(OC)N1C (stereo not drawn)
DMS 114 small cell lung
  TGI: > 100 µM
XF 498 CNS
  TGI: > 100 µM
LXFL 529 NSCLC
  TGI: > 100 µM
SNB-78 CNS
  TGI: > 100 µM
M19-MEL melanoma
  TGI: > 100 µM
HOP-18 NSCLC
  TGI: > 100 µM

## CCCCNS(=O)(=O)c1ccc(-c2ccc3c(c2)-c2ccc(S(=O)(=O)NCCCC)cc2S3(=O)=O)cc1
DMS 114 small cell lung
  TGI: > 100 µM
XF 498 CNS
  TGI: 23.9 µM
LXFL 529 NSCLC
  TGI: 33.9 µM
SNB-78 CNS
  TGI: 33.4 µM
M19-MEL melanoma
  TGI: > 100 µM
HOP-18 NSCLC
  TGI: 54 µM

## O=C1NC(=O)C(c2cccc(Cl)c2)=C1Nc1ccc(Cl)c(C(=O)O)c1
T-47D breast
  GI50: > 25 µM
  TGI: > 25 µM

## O=C1OC(=O)C23CSCC12C1C=CC3O1 (stereo not drawn)
DMS 114 small cell lung
  TGI: > 100 µM
XF 498 CNS
  TGI: > 100 µM
LXFL 529 NSCLC
  TGI: > 100 µM
M19-MEL melanoma
  TGI: > 100 µM

## O=c1cc[nH]cc1-c1c[nH]ccc1=O
DMS 114 small cell lung
  TGI: > 100 µM
LXFL 529 NSCLC
  TGI: > 100 µM
SNB-78 CNS
  TGI: > 100 µM
M19-MEL melanoma
  TGI: > 100 µM
HOP-18 NSCLC
  TGI: > 100 µM

## O=c1c2ccccc2oc2ccccc12 (tested in a mixture with another compound)
DMS 114 small cell lung
  TGI: 5.08 µM
LXFL 529 NSCLC
  TGI: > 100 µM

## COc1cc(Cc2c(C)cc(OC)c3[nH]c4ccccc4c23)cc2c1[nH]c1ccccc12
DMS 114 small cell lung
  TGI: > 25 µM
XF 498 CNS
  GI50: 6.03 µM
  TGI: > 25 µM
LXFL 529 NSCLC
  GI50: 4.13 µM
  TGI: 22.4 µM
SNB-78 CNS
  TGI: 17 µM
M19-MEL melanoma
  GI50: 9.67 µM
  TGI: > 25 µM

## FC(F)c1ncc(-c2ccc(C(F)(F)F)cc2)c(NC2CCCCCC2)n1
T-47D breast
  GI50: > 10 µM
  TGI: > 10 µM

## CC(C)(C)c1ccc(C2CC(=O)C3=C(C2)Nc2ccccc2N(C(=O)c2ccccc2Cl)C3c2ccc(F)cc2)cc1 (stereo not drawn)
T-47D breast
  GI50: 5.57 µM
  TGI: > 100 µM

## CCCC(O)c1cn(-c2cccc(S(=O)(=O)O)c2)nn1 (stereo not drawn)
DMS 114 small cell lung
  TGI: > 100 µM
RXF-631 renal
  TGI: > 100 µM
XF 498 CNS
  TGI: > 100 µM
LXFL 529 NSCLC
  TGI: > 100 µM
SNB-78 CNS
  TGI: > 100 µM
M19-MEL melanoma
  TGI: > 100 µM
HOP-18 NSCLC
  TGI: > 100 µM

## O=C(O)c1c2c(cc3c(=O)c4ccccc4[nH]c13)CCCC2
RXF-631 renal
  TGI: > 100 µM
XF 498 CNS
  TGI: > 100 µM
LXFL 529 NSCLC
  TGI: > 100 µM
SNB-78 CNS
  TGI: > 100 µM
M19-MEL melanoma
  TGI: > 100 µM
HOP-18 NSCLC
  TGI: > 100 µM

## CN1CCN(Cc2ccc(NC(=O)c3[nH]ncc3Nc3ncnc4[nH]ccc34)cc2)CC1
T-47D breast
  GI50: 0.365 µM
  TGI: 18.7 µM

## Fc1ccc2c(c1)C1=C(CCC2)C(c2ccc(Cl)cc2)NC(=S)N1 (stereo not drawn)
T-47D breast
  GI50: 54.4 µM
  TGI: > 100 µM

## COc1ccc(C2NN=C3c4ccccc4CCC32)cc1 (stereo not drawn)
T-47D breast
  GI50: 6.12 µM
  TGI: 47.3 µM

## COc1cc(F)c(F)cc1C(=O)c1cnc(NC2CCN(S(C)(=O)=O)CC2)nc1N
T-47D breast
  GI50: 4.58 µM
  TGI: 23.8 µM

## CN(C)C=N[C@@H](C(=O)O)c1ccccc1
MDA-N
  TGI: > 100 µM
T-47D breast
  TGI: > 100 µM

## COC(=O)c1onc(C2OC(C)(C)OC2C(O)COC(c2ccccc2)(c2ccccc2)c2ccccc2)c1C(=O)OC (stereo not drawn)
MDA-N
  TGI: > 100 µM
T-47D breast
  TGI: > 100 µM

## Nc1c(C(=O)c2cccc(C(O)CO)c2)cnn1-c1ccc(F)cc1 (stereo not drawn)
T-47D breast
  GI50: > 25 µM
  TGI: > 25 µM

## Cc1nn(C)c2ncnc(N/N=C/c3cccc(O)c3O)c12
T-47D breast
  GI50: 3.25 µM
  TGI: > 100 µM

## CCN1CCN(c2cc(C(=O)Nc3cccc(Nc4ccc5c(OC)cccc5n4)c3)cc(C(F)(F)F)c2)CC1
T-47D breast
  GI50: 2.05 µM
  TGI: 11.7 µM
